US11622955B2, “Sigma-1 receptor agonist systolic blood pressure therapy” (ANAVEX LIFE SCIENCES CORP., priority 2017, dated 2023)
Counter-ions that a name gives are not always drawn.

Tests used:
[1] = Example 2: maximum diurnal systolic blood pressure, combination with a β1-selective agent; type: in vivo, human; settings: person
From the text: “Maximum diurnal” systolic or diastolic BP is a measure of highest systolic or diastolic blood pressure recorded in a 24-hour period. Without being bound by any particular theory, it is believed that a maximal diurnal BP reflects the peak of the natural diurnal blood pressure cycle, typically occurring in the morning, for example between about 5 am and about 11 am. Commonly, a second peak occurs in the evening, for example between about 5 pm and 10 pm. Such a bimodal waveform diurnal ambulatory BP pattern may be especially characteristic of resistant hypertension.
Effect of 50 mg Once Daily Dosage A2-73 Combination Treatment with a β1-Selective Agent.
The subject continues on the metoprolol tartrate, and is started on oral A2-73 at a daily dosage of 50 mg/day for a period of 25 days. Their maximum diurnal systolic blood pressure is then measured at 135 mg Hg and maintained indefinitely with the combined metoprolol tartrate and daily oral dose of 50 mg of A2-73.

[2] = Example 3: trough systolic blood pressure, combination with a thiazine diuretic; type: in vivo, human; settings: person
Method: Effect of 10 mg Once Daily Dosage A2-73 Combination Treatment with a Thiazine Diuretic.
The subject continues on the chlorothalidone and is started on oral A2-73 at a daily dosage of 10 mg/day for a period of 25 days. Their trough systolic blood pressure is then measured at 135 mg Hg and maintained indefinitely with the combined chlorothalidone and daily oral dose of 10 mg of A2-73.

[3] = Phase IIa clinical trial in Alzheimer's disease patients, post-hoc evaluation of systolic blood pressure; type: in vivo, human
Method: FIG. 1 is a graph of systolic blood pressure readings of 32 human patients of both sexes, across multiple visits, adjusted for time of BP measurement, gender, age, body mass index, and previous or concurrent use of antihypertensive medication.
BPs were measured at four time points during the study period: 1) the day of screening for enrollment, 2) day one of treatment with either oral or intravenous medication (BP measurements were obtained prior to medication administration), 3) day 25 of treatment (when patients crossed over to receive whichever formulation, oral or intravenous, they had not received previously), and 4) day 36 (conclusion of the PART A of the Phase IIa study). Statistical analyses included paired t-testing comparing changes in BPs across each measurement, as well as multivariable linear mixed effects modeling (adjusted for time of measurement, gender, age, body mass index, and use of antihypertensive medication) to account for within-individual repeated measurements over time.
Thirty-two Alzheimer's disease patients took part in the phase IIa trial. Mean age was 69.5 (standard deviation [SD] 9.8) years, 60% were male, mean body mass index was 26.5 (SD 3.9) kg/m2, and 50% were on antihypertensive medication at the time of screening. […] In multivariable adjusted models (FIG. 1), there was no significant difference in SBP between the first and second readings (p=0.211). […] Of note, no patients reported any changes in their antihypertensive regimen while taking part in the trial.

[4] = Example 1: 24-hour ambulatory systolic blood pressure in a patient with high SBP; type: in vivo, human; settings: person
Method: Another measure of blood pressure is “24-hour ambulatory” blood pressure. A “24-hour ambulatory” systolic or diastolic BP is an average of systolic or diastolic measurements taken repeatedly in the course of a 24-hour period, in an ambulatory subject.
Effect of 5 mg and 30 mg Once Daily dosage A2-73.
The dose of A2-73 is then increased so that the subject is administered A2-73 daily, at a dosage of 30 mg/day for a period of 25 days. His 24-hour ambulatory systolic blood pressure is then measured at 135 mg Hg and maintained indefinitely with the daily oral dose of 30 mg of A2-73.

[5] = cited from earlier work
[6] = single oral dose, healthy male volunteers

COCCc1ccc(OCC(O)CNC(C)C)cc1 (racemic) [metoprolol tartrate, (RS)-1-[4-(2-Methoxyethyl)phenoxy]-3-[(propan-2-yl)amino]propan-2-ol, reference compound]
maximum diurnal systolic blood pressure ([1]; metoprolol tartrate 50 mg twice daily, before A2-73): 150 mg Hg

NS(=O)(=O)c1cc(C2(O)NC(=O)c3ccccc32)ccc1Cl (racemic) [chlorothalidone, (RS)-2-Chloro-5-(1-hydroxy-3-oxo-2,3-dihydro-1H-isoindol-1-yl)benzene-1-sulfonamide, reference compound]
trough systolic blood pressure ([2]; chlorothalidone 25 mg orally once a day, before A2-73): 150 mg Hg

CN(C)CC1CCOC1(c1ccccc1)c1ccccc1.Cl (centres unmarked) [A2-73, tetrahydro-N,N-dimethyl-2,2-diphenyl-3-furanmethanamine hydrochloride]
tolerability in human patients ([3]; Phase I and Phase IIa clinical trials): well tolerated
change in SBP, first reading vs other subsequent readings (day 25, day 36) ([3]; multivariable adjusted models (FIG. 1), p=0.048 and 0.008): significant decline in SBP
change in SBP, second measurement (day one, pre-dose) vs all subsequent measurements ([3]; unadjusted analyses, p=0.120 and 0.972 (day 25, day 36)): no significant decline
change in SBP, first measurement vs all subsequent measurements ([3]; unadjusted analyses, paired t-test, p=0.007, 0.001 and 0.007, 32 Alzheimer's disease patients, oral or intravenous): significant decline in SBP
24-hour ambulatory systolic blood pressure ([4]; 5 mg A2-73 orally once a day): 150 mg Hg
24-hour ambulatory systolic blood pressure ([4]; A2-73 30 mg/day oral for 25 days): 135 mg Hg
maximum diurnal systolic blood pressure ([1]; oral A2-73 50 mg/day for 25 days, combined with continued metoprolol tartrate 50 mg twice daily): 135 mg Hg
trough systolic blood pressure ([2]; oral A2-73 10 mg/day for 25 days, combined with continued chlorothalidone 25 mg once a day): 135 mg Hg
observed adverse events ([5]; at the highest doses): moderate and reversible dizziness and headache
blood pressure, resting heart rate, vital signs and 12-lead ECG changes ([5]; in vivo, po): did not show any clinically relevant or dose-dependent changes
pharmacokinetics ([5]; in vivo, po): suitable for daily oral dosing
serious adverse events ([5]; single ascending oral dose, 22 healthy male volunteers): No serious adverse events occurred
maximum tolerable dose [5, 6]: 55 mg
minimum intolerable dose [5, 6]: 60 mg
safety and tolerability of ascending single oral doses ([5]; single oral doses of 1, 10, 30, 40, 50 and 55 mg, healthy subjects): safe and well tolerated
